Tested on: MV-4-11 cells
Assay: Gene expression microarray analysis (Affymetrix PrimeView) and GSEA
Format: cell-based, human
Parameters: RFU PODN (11730768_x_at) / Fold change /veh PODN (11730768_x_at) / RFU LINC00158 (11744669_a_at) / Fold change /veh LINC00158 (11744669_a_at) / RFU DUSP10 (11751237_a_at) / Fold change /veh DUSP10 (11751237_a_at) / RFU ID3 (11757404_x_at) / Fold change /veh ID3 (11757404_x_at) / RFU PLEKHG5 (11737974_s_at) / Fold change /veh PLEKHG5 (11737974_s_at) / RFU LRRC4B (11730491_at) / Fold change /veh LRRC4B (11730491_at) / RFU GIMAP4 (11747438_a_at) / Fold change /veh GIMAP4 (11747438_a_at) / RFU KRT8 (11758183_x_at) / Fold change /veh KRT8 (11758183_x_at) / RFU CNN1 (11734310_a_at) / Fold change /veh CNN1 (11734310_a_at) / RFU VPS37D (11726825_at) / Fold change /veh VPS37D (11726825_at) / RFU C10orf10 (11716522_x_at) / Fold change /veh C10orf10 (11716522_x_at) / RFU KIR2DL2 /// KIR2DL4 /// KIR2DL5A /// KIR2DL5B /// KIR2DS1 /// KIR2DS2 /// KIR2DS3 /// KIR2DS4 /// KIR3DL3 /// KIR3DL3 /// KIR3DS1 (11738374_at) / Fold change /veh KIR2DL2 /// KIR2DL4 /// KIR2DL5A /// KIR2DL5B /// KIR2DS1 /// KIR2DS2 /// KIR2DS3 /// KIR2DS4 /// KIR3DL3 /// KIR3DL3 /// KIR3DS1 (11738374_at) / RFU C1QL1 (11718748_at) / Fold change /veh C1QL1 (11718748_at) / RFU TMPRSS4 (11747572_a_at) / Fold change /veh TMPRSS4 (11747572_a_at) / RFU HAMP (11756126_x_at) / Fold change /veh HAMP (11756126_x_at) / RFU RNFT2 (11725882_a_at) / Fold change /veh RNFT2 (11725882_a_at) / RFU NR4A2 (11747474_a_at) / Fold change /veh NR4A2 (11747474_a_at) / RFU ABCC12 (11746883_a_at) / Fold change /veh ABCC12 (11746883_a_at) / RFU TMEM136 (11760407_x_at) / Fold change /veh TMEM136 (11760407_x_at) / RFU CLDN22 /// WWC2 (11732394_at) / Fold change /veh CLDN22 /// WWC2 (11732394_at) / RFU HLA-DPB1 (11760878_x_at) / Fold change /veh HLA-DPB1 (11760878_x_at) / RFU SPINT1 (11716480_a_at) / Fold change /veh SPINT1 (11716480_a_at) / RFU GAP43 (11754022_s_at) / Fold change /veh GAP43 (11754022_s_at) / RFU A4GNT (11735810_at) / Fold change /veh A4GNT (11735810_at) / RFU PRB3 (11715151_x_at) / Fold change /veh PRB3 (11715151_x_at) / RFU TUBB4B (11761932_at) / Fold change /veh TUBB4B (11761932_at) / RFU CAPN14 (11732068_a_at) / Fold change /veh CAPN14 (11732068_a_at) / RFU TMCC2 (11721928_a_at) / Fold change /veh TMCC2 (11721928_a_at) / RFU IRGQ (11745062_a_at) / Fold change /veh IRGQ (11745062_a_at) / RFU FAM174B (11720279_a_at) / Fold change /veh FAM174B (11720279_a_at) / RFU TMPRSS4 (11748680_a_at) / Fold change /veh TMPRSS4 (11748680_a_at) / RFU FAM212B (11763350_a_at) / Fold change /veh FAM212B (11763350_a_at) / RFU PLEKHG5 (11743358_a_at) / Fold change /veh PLEKHG5 (11743358_a_at) / RFU ZSCAN30 (11745921_a_at) / Fold change /veh ZSCAN30 (11745921_a_at) / RFU CMKLR1 (11741424_a_at) / Fold change /veh CMKLR1 (11741424_a_at) / RFU LOC101060620 /// MAPK8IP1 (11723275_at) / Fold change /veh LOC101060620 /// MAPK8IP1 (11723275_at) / RFU SPTSSB (11747773_x_at) / Fold change /veh SPTSSB (11747773_x_at) / RFU PRSS12 (11739890_at) / Fold change /veh PRSS12 (11739890_at) / RFU BIN1 (11741810_x_at) / Fold change /veh BIN1 (11741810_x_at) / RFU WNT11 (11732464_a_at) / Fold change /veh WNT11 (11732464_a_at) / RFU C10orf10 (11716521_a_at) / Fold change /veh C10orf10 (11716521_a_at) / RFU C5orf56 (11738089_at) / Fold change /veh C5orf56 (11738089_at) / RFU CYB561 (11721691_x_at) / Fold change /veh CYB561 (11721691_x_at) / RFU ANKRD19P (11752326_a_at) / Fold change /veh ANKRD19P (11752326_a_at) / RFU OR2T12 /// OR2T33 /// OR2T8 (11738714_s_at) / Fold change /veh OR2T12 /// OR2T33 /// OR2T8 (11738714_s_at) / RFU VCAN (11748164_a_at) / Fold change /veh VCAN (11748164_a_at) / RFU JSRP1 (11732532_at) / Fold change /veh JSRP1 (11732532_at) / RFU KRTAP10-11 (11738290_x_at) / Fold change /veh KRTAP10-11 (11738290_x_at) / RFU MYO3A (11730013_a_at) / Fold change /veh MYO3A (11730013_a_at) / RFU EBF3 (11725865_a_at) / Fold change /veh EBF3 (11725865_a_at) / RFU CAMK2N1 (11719241_x_at) / Fold change /veh CAMK2N1 (11719241_x_at) / RFU C5orf56 (11738088_a_at) / Fold change /veh C5orf56 (11738088_a_at) / RFU OLFML3 (11715873_a_at) / Fold change /veh OLFML3 (11715873_a_at) / RFU LOC100653217 /// NTM (11731650_a_at) / Fold change /veh LOC100653217 /// NTM (11731650_a_at) / RFU MAPK11 (11762145_a_at) / Fold change /veh MAPK11 (11762145_a_at) / RFU FIZ1 (11724087_x_at) / Fold change /veh FIZ1 (11724087_x_at) / RFU OASL (11726364_x_at) / Fold change /veh OASL (11726364_x_at) / RFU SOX15 (11748057_x_at) / Fold change /veh SOX15 (11748057_x_at) / RFU CD79A (11719716_a_at) / Fold change /veh CD79A (11719716_a_at) / RFU HIST1H1D (11736915_at) / Fold change /veh HIST1H1D (11736915_at) / RFU CASKIN2 (11723855_a_at) / Fold change /veh CASKIN2 (11723855_a_at) / RFU LOC730098 (11760151_x_at) / Fold change /veh LOC730098 (11760151_x_at) / RFU OR4N2 (11742367_at) / Fold change /veh OR4N2 (11742367_at) / RFU PRRT2 (11749266_a_at) / Fold change /veh PRRT2 (11749266_a_at) / RFU SNX32 (11753110_a_at) / Fold change /veh SNX32 (11753110_a_at) / RFU CDHR5 (11726645_a_at) / Fold change /veh CDHR5 (11726645_a_at) / RFU RCAN1 (11760418_a_at) / Fold change /veh RCAN1 (11760418_a_at) / RFU FAM167A (11723789_a_at) / Fold change /veh FAM167A (11723789_a_at) / RFU FAM26E (11764081_at) / Fold change /veh FAM26E (11764081_at) / RFU ISYNA1 (11749810_s_at) / Fold change /veh ISYNA1 (11749810_s_at) / RFU ACY1 (11761880_at) / Fold change /veh ACY1 (11761880_at) / RFU 11764098_at / Fold change /veh 11764098_at / RFU SAMD14 (11745864_x_at) / Fold change /veh SAMD14 (11745864_x_at) / RFU NPB (11741838_a_at) / Fold change /veh NPB (11741838_a_at) / RFU TMPRSS6 (11731388_a_at) / Fold change /veh TMPRSS6 (11731388_a_at) / RFU KRTAP10-2 (11738614_at) / Fold change /veh KRTAP10-2 (11738614_at) / RFU ARHGAP8 /// PRR5-ARHGAP8 (11727945_x_at) / Fold change /veh ARHGAP8 /// PRR5-ARHGAP8 (11727945_x_at) / RFU KRTAP5-7 /// NADSYN1 (11734609_at) / Fold change /veh KRTAP5-7 /// NADSYN1 (11734609_at) / RFU RASL12 (11751679_a_at) / Fold change /veh RASL12 (11751679_a_at) / RFU CDKN2B (11736163_a_at) / Fold change /veh CDKN2B (11736163_a_at) / RFU PRF1 (11729649_at) / Fold change /veh PRF1 (11729649_at) / RFU, ZNF638 /// ZNF638-IT1 / Fold change vs veh, ZNF638 /// ZNF638-IT1 / RFU, PANK3 / Fold change vs veh, PANK3 / RFU, SH3YL1 / Fold change vs veh, SH3YL1 / RFU, ZEB2 / Fold change vs veh, ZEB2 / RFU, NRIP1 / Fold change vs veh, NRIP1 / RFU, PTTG1IP / Fold change vs veh, PTTG1IP / RFU, CAPN2 / Fold change vs veh, CAPN2 / RFU, MED14 / Fold change vs veh, MED14 / RFU, SNORA58 / Fold change vs veh, SNORA58 / RFU, C1orf63 / Fold change vs veh, C1orf63 / RFU, LRRFIP1 / Fold change vs veh, LRRFIP1 / RFU, NDUFAF7 / Fold change vs veh, NDUFAF7 / RFU, SLC12A2 / Fold change vs veh, SLC12A2 / RFU, IBTK / Fold change vs veh, IBTK / RFU, ESF1 / Fold change vs veh, ESF1 / Fold change vs veh, TMEM50B / RFU, TAOK1 / Fold change vs veh, TAOK1 / RFU, ACBD3 / Fold change vs veh, ACBD3 / RFU, TMA16 / Fold change vs veh, TMA16 / RFU, RWDD3 / Fold change vs veh, RWDD3 / RFU, BCAT1 / Fold change vs veh, BCAT1 / RFU, EDEM3 / Fold change vs veh, EDEM3 / RFU, TMEM33 / Fold change vs veh, TMEM33 / RFU, WDR75 / Fold change vs veh, WDR75 / RFU, AHCTF1 / Fold change vs veh, AHCTF1 / RFU, TFRC / Fold change vs veh, TFRC / RFU, ZDHHC17 / Fold change vs veh, ZDHHC17 / RFU, NOM1 / Fold change vs veh, NOM1 / RFU, ARL8B / Fold change vs veh, ARL8B / RFU, ZBTB11 / Fold change vs veh, ZBTB11 / RFU, TAMM41 / Fold change vs veh, TAMM41 / RFU, KIAA1704 /// LOC100996395 / Fold change vs veh, KIAA1704 /// LOC100996395 / RFU, ING1 / Fold change vs veh, ING1 / RFU, TRMT61B / Fold change vs veh, TRMT61B / RFU, FUBP3 / Fold change vs veh, FUBP3 / RFU, TP53 / Fold change vs veh, TP53 / RFU, TNKS2 / Fold change vs veh, TNKS2 / RFU, ZFP14 / Fold change vs veh, ZFP14 / RFU, ACTR2 / Fold change vs veh, ACTR2 / RFU, PPP3R1 / Fold change vs veh, PPP3R1 / RFU, PIK3R1 / Fold change vs veh, PIK3R1 / RFU, HNRNPA1 / Fold change vs veh, HNRNPA1 / RFU, RNF170 / Fold change vs veh, RNF170 / RFU, ZNF28 / Fold change vs veh, ZNF28 / RFU, RNGTT / Fold change vs veh, RNGTT / RFU, OGT / Fold change vs veh, OGT / RFU, BRD1 / Fold change vs veh, BRD1 / RFU, MARS / Fold change vs veh, MARS / RFU, ZNF655 / Fold change vs veh, ZNF655 / RFU, FAHD1 / Fold change vs veh, FAHD1 / RFU, BDP1 / Fold change vs veh, BDP1 / RFU, LRRCC1 / Fold change vs veh, LRRCC1 / RFU, ARID1A / Fold change vs veh, ARID1A / RFU, ZNF146 / Fold change vs veh, ZNF146 / RFU, ZNF330 / Fold change vs veh, ZNF330 / RFU, GPN3 / Fold change vs veh, GPN3 / RFU, C9orf123 / Fold change vs veh, C9orf123 / RFU, N4BP2L2 / Fold change vs veh, N4BP2L2 / RFU, ARFIP1 / Fold change vs veh, ARFIP1 / RFU, FAM179B / Fold change vs veh, FAM179B / RFU, BCL10 / Fold change vs veh, BCL10 / RFU, UHRF1BP1L / Fold change vs veh, UHRF1BP1L / RFU, BET1 / Fold change vs veh, BET1 / RFU, CNOT2 / Fold change vs veh, CNOT2 / RFU, ZNF268 / Fold change vs veh, ZNF268 / Fold change vs veh, ZNF507 / RFU, DGCR2 / Fold change vs veh, DGCR2 / RFU, WDSUB1 / Fold change vs veh, WDSUB1 / Fold change vs veh, HSP90B1 /// MIR3652 / RFU, ADSS / Fold change vs veh, ADSS / RFU, GK / Fold change vs veh, GK / RFU, ZNF148 / Fold change vs veh, ZNF148 / RFU, TAF9 / Fold change vs veh, TAF9 / RFU, SLC1A5 / Fold change vs veh, SLC1A5 / RFU, SLMO2 / Fold change vs veh, SLMO2 / RFU, ABCC4 / Fold change vs veh, ABCC4 / RFU, LOC101060439 /// RAP1B / Fold change vs veh, LOC101060439 /// RAP1B / RFU, RFX7 / Fold change vs veh, RFX7 / RFU, GTPBP10 / Fold change vs veh, GTPBP10 / RFU, CNEP1R1 / Fold change vs veh, CNEP1R1 / RFU, BIVM-ERCC5 /// ERCC5 / Fold change vs veh, BIVM-ERCC5 /// ERCC5 / RFU, ILF3 / Fold change vs veh, ILF3 / RFU 11762660_at / Fold change /veh 11762660_at / RFU VCAN (11757783_s_at) / Fold change /veh VCAN (11757783_s_at) / RFU DDX43 (11728927_at) / Fold change /veh DDX43 (11728927_at) / RFU KRT8 (11758188_x_at) / Fold change /veh KRT8 (11758188_x_at) / RFU NKD1 (11759106_at) / Fold change /veh NKD1 (11759106_at) / RFU SRD5A1 (11742802_a_at) / Fold change /veh SRD5A1 (11742802_a_at) / RFU TPSAB1 /// TPSB2 (11721975_s_at) / Fold change /veh TPSAB1 /// TPSB2 (11721975_s_at) / RFU GSTM3 (11746129_a_at) / Fold change /veh GSTM3 (11746129_a_at) / RFU IL23R (11737362_x_at) / Fold change /veh IL23R (11737362_x_at) / RFU TMEM51 (11727254_a_at) / Fold change /veh TMEM51 (11727254_a_at) / RFU PIWIL2 (11732686_x_at) / Fold change /veh PIWIL2 (11732686_x_at) / RFU ORM1 (11744905_x_at) / Fold change /veh ORM1 (11744905_x_at) / RFU CCDC152 (11743942_at) / Fold change /veh CCDC152 (11743942_at) / RFU ECM1 (11717891_a_at) / Fold change /veh ECM1 (11717891_a_at) / RFU IL23R (11748794_a_at) / Fold change /veh IL23R (11748794_a_at) / RFU TNFAIP8L3 (11732012_x_at) / Fold change /veh TNFAIP8L3 (11732012_x_at) / RFU MBOAT4 (11741988_at) / Fold change /veh MBOAT4 (11741988_at) / RFU 11764193_at / Fold change /veh 11764193_at / RFU TMEM53 (11763286_at) / Fold change /veh TMEM53 (11763286_at) / RFU MAGEB2 (11727129_at) / Fold change /veh MAGEB2 (11727129_at) / RFU TMEM200A (11744735_a_at) / Fold change /veh TMEM200A (11744735_a_at) / RFU CCDC152 (11751479_a_at) / Fold change /veh CCDC152 (11751479_a_at) / RFU FAM211A (11726209_a_at) / Fold change /veh FAM211A (11726209_a_at) / RFU RGS16 (11746705_a_at) / Fold change /veh RGS16 (11746705_a_at) / RFU VCAN (11755009_s_at) / Fold change /veh VCAN (11755009_s_at) / RFU RHOB (11743442_s_at) / Fold change /veh RHOB (11743442_s_at) / RFU RGS16 (11720943_a_at) / Fold change /veh RGS16 (11720943_a_at) / RFU RGS16 (11720944_at) / Fold change /veh RGS16 (11720944_at) / RFU, VPS4B / Fold change vs veh, VPS4B / RFU, CREB1 / Fold change vs veh, CREB1 / RFU, DNAJC13 / Fold change vs veh, DNAJC13 / RFU, GNAQ / Fold change vs veh, GNAQ / RFU, CDK5R1 / Fold change vs veh, CDK5R1 / RFU, ZRANB3 / Fold change vs veh, ZRANB3 / RFU, CUL4A / Fold change vs veh, CUL4A / RFU, CCNY / Fold change vs veh, CCNY / RFU, UFL1 / Fold change vs veh, UFL1 / RFU, COG3 / Fold change vs veh, COG3 / RFU, DIAPH2 / Fold change vs veh, DIAPH2 / RFU, SKA2 / Fold change vs veh, SKA2 / RFU, AFF3 / Fold change vs veh, AFF3 / RFU, LMF1 / Fold change vs veh, LMF1 / RFU, IPO11 / Fold change vs veh, IPO11 / RFU, DFFB / Fold change vs veh, DFFB / RFU, FOXP1 / Fold change vs veh, FOXP1 / RFU, CARD8 / Fold change vs veh, CARD8 / RFU, STRN3 / Fold change vs veh, STRN3 / RFU, ADK / Fold change vs veh, ADK / RFU, RASSF2 / Fold change vs veh, RASSF2 / RFU, WIPF1 / Fold change vs veh, WIPF1 / RFU, LARP1B / Fold change vs veh, LARP1B / RFU, RASA1 / Fold change vs veh, RASA1 / RFU, RB1 / Fold change vs veh, RB1 / RFU, PPFIA1 / Fold change vs veh, PPFIA1 / RFU, MAT2A / Fold change vs veh, MAT2A / RFU, CCT5 / Fold change vs veh, CCT5 / RFU, WDR92 / Fold change vs veh, WDR92 / RFU, CUX1 / Fold change vs veh, CUX1 / RFU, TTC7A / Fold change vs veh, TTC7A / RFU, TMEM135 / Fold change vs veh, TMEM135 / RFU, DEPTOR / Fold change vs veh, DEPTOR / RFU, CPM / Fold change vs veh, CPM / RFU, DNAJB6 / Fold change vs veh, DNAJB6 / RFU, CACNA2D3 / Fold change vs veh, CACNA2D3 / RFU, DTX4 / Fold change vs veh, DTX4 / RFU, TFCP2 / Fold change vs veh, TFCP2 / RFU, GMCL1 /// GMCL1P1 / Fold change vs veh, GMCL1 /// GMCL1P1 / RFU, AEBP2 / Fold change vs veh, AEBP2 / RFU, SNHG1 /// SNORD22 /// SNORD25 /// SNORD26 /// SNORD27 /// SNORD28 /// SNORD29 /// SNORD31 / Fold change vs veh, SNHG1 /// SNORD22 /// SNORD25 /// SNORD26 /// SNORD27 /// SNORD28 /// SNORD29 /// SNORD31 / Fold change (Aza/veh), C12orf56 (ProbeSet 11735607_a_at) / Fold change (ACY-1035/veh), C12orf56 (ProbeSet 11735607_a_at) / Fold change (Aza/veh), FGFR1OP (ProbeSet 11751329_s_at) / Fold change (ACY-1035/veh), FGFR1OP (ProbeSet 11751329_s_at) / Fold change (Aza/veh), VPS36 (ProbeSet 11739960_a_at) / Fold change (ACY-1035/veh), VPS36 (ProbeSet 11739960_a_at) / RFU SYPL1 (11715823_x_at) / Fold change /veh SYPL1 (11715823_x_at) / RFU IGFBP7 (11715501_s_at) / Fold change /veh IGFBP7 (11715501_s_at) / RFU REEP3 (11722064_at) / Fold change /veh REEP3 (11722064_at) / RFU IGLL1 (11728026_x_at) / Fold change /veh IGLL1 (11728026_x_at): dose or concentration left out as unconfirmed
Settings: MV-4-11 cells, 48 hours

Nc1ccc(-c2cccs2)cc1NC(=O)c1ccc2c(c1)cc(C1CC1)n2CCN1CCOCC1 [ACY-1035]
RFU FIZ1 (11724087_x_at): 31.13 RFU
